These results are taken from ChEMBL document CHEMBL2417483, “Synthesis of thiosemicarbazones derived from N-(4-hippuric acid)thiosemicarbazide and different carbonyl compounds as antimicrobial agents” (2013).

Structures are written as SMILES. Converted amounts (≈) assume the structure as drawn.

What all share (type): functional
The test system of experiment [1] is Candida albicans. In words: Antifungal activity against Candida albicans NRRLY 477 assessed as growth inhibition at 1 mg/mL after 24 hrs by agar well diffusion assay. Conditions: NRRLY 477, 24 h, read-out: DIZ. (Agar diffusion results depend on both activity and mobility in agar.)
Experiment [2] relates to Saccharomyces cerevisiae. In words: Antifungal activity against Saccharomyces cerevisiae assessed as growth inhibition at 1 mg/mL after 24 hrs by agar well diffusion assay. Conditions: read-out: DIZ.
In experiment [3] the test system is Proteus vulgaris. In words: Antibacterial activity against Proteus vulgaris assessed as growth inhibition at 1 mg/mL after 24 hrs by agar well diffusion assay. The note with it: read-out: DIZ.
Experiment [4] deals with Micrococcus luteus. In words: Antibacterial activity against Sarcina luteus assessed as growth inhibition at 1 mg/mL after 24 hrs by agar well diffusion assay. The note with it: read-out: DIZ.
Experiment [5] deals with Escherichia coli. In words: Antibacterial activity against Escherichia coli ATCC 25922 assessed as growth inhibition at 1 mg/mL after 24 hrs by agar well diffusion assay. Conditions: ATCC 25922, 24 h, read-out: DIZ.
In experiment [6] the test system is Pseudomonas aeruginosa. In words: Antibacterial activity against Pseudomonas aeruginosa ATCC 27953 assessed as growth inhibition at 1 mg/mL after 24 hrs by agar well diffusion assay. Conditions: ATCC 27953, 24 h, read-out: DIZ.
In experiment [7] the test system is Klebsiella pneumoniae. In words: Antibacterial activity against Klebsiella pneumoniae ATCC 13883 assessed as growth inhibition at 1 mg/mL after 24 hrs by agar well diffusion assay. Conditions: ATCC 13883, 24 h, read-out: DIZ.
Experiment [8] deals with Priestia megaterium. In words: Antibacterial activity against Bacillus megaterium ATCC 9885 assessed as growth inhibition at 1 mg/mL after 24 hrs by agar well diffusion assay. The note with it: ATCC 9885, 24 h, read-out: DIZ.
The test system of experiment [9] is Bacillus spizizenii. In words: Antibacterial activity against Bacillus subtilis ATCC 6633 assessed as growth inhibition at 1 mg/mL after 24 hrs by agar well diffusion assay. The note with it: ATCC 6633, 24 h, read-out: DIZ.
Experiment [10] concerns Staphylococcus aureus. In words: Antibacterial activity against Staphylococcus aureus ATCC 29213 assessed as growth inhibition at 1 mg/mL after 24 hrs by agar well diffusion assay. Conditions: ATCC 29213, 24 h, read-out: DIZ.
The test system of experiment [11] is Escherichia coli. In words: Potency index, ratio of ciprofloxacin MIC to compound MIC for Escherichia coli ATCC 25922.
For experiment [12], the system named is Candida albicans. In words: Fungistatic activity against Candida albicans NRRLY 477 after 24 hrs by two-fold serial dilution assay. The note with it: NRRLY 477, 24 h.
Experiment [13] deals with Saccharomyces cerevisiae. In words: Fungistatic activity against Saccharomyces cerevisiae after 24 hrs by two-fold serial dilution assay.
Experiment [14] relates to Proteus vulgaris. In words: Bacteriostatic activity against Proteus vulgaris after 24 hrs by two-fold serial dilution assay.
The test system of experiment [15] is Micrococcus luteus. In words: Bacteriostatic activity against Sarcina luteus after 24 hrs by two-fold serial dilution assay.
For experiment [16], the system named is Escherichia coli. In words: Bacteriostatic activity against Escherichia coli ATCC 25922 after 24 hrs by two-fold serial dilution assay. The note with it: ATCC 25922, 24 h.
For experiment [17], the system named is Pseudomonas aeruginosa. In words: Bacteriostatic activity against Pseudomonas aeruginosa ATCC 27953 after 24 hrs by two-fold serial dilution assay. Conditions: ATCC 27953, 24 h.
Experiment [18] relates to Klebsiella pneumoniae. In words: Bacteriostatic activity against Klebsiella pneumoniae ATCC 13883 after 24 hrs by two-fold serial dilution assay. The note with it: ATCC 13883, 24 h.
In experiment [19] the test system is Priestia megaterium. In words: Bacteriostatic activity against Bacillus megaterium ATCC 9885 after 24 hrs by two-fold serial dilution assay. Conditions: ATCC 9885, 24 h.
Experiment [20] concerns Bacillus spizizenii. In words: Bacteriostatic activity against Bacillus subtilis ATCC 6633 after 24 hrs by two-fold serial dilution assay. The note with it: ATCC 6633, 24 h.
Experiment [21] has as its system Staphylococcus aureus. In words: Bacteriostatic activity against Staphylococcus aureus ATCC 29213 after 24 hrs by two-fold serial dilution assay. Conditions: ATCC 29213, 24 h.
Experiment [22] relates to Pseudomonas aeruginosa. In words: Potency index, ratio of ciprofloxacin MIC to compound MIC for Pseudomonas aeruginosa ATCC 27953.

By MIC is commonly meant the lowest concentration that inhibits growth of the organism. The low end stands for a more susceptible organism, the high end for a less susceptible organism.

For the molecule `O=C(O)CNC(=O)c1ccc(NC(=S)N/N=C/c2cccc(Br)c2)cc1`, the zone of inhibition at 1000 µg/mL in experiment [1] came out at 0 mm; in experiment [2], 11 mm; in experiment [3], 0 mm; in experiment [4] it was 18 mm; in experiment [5] it was 20 mm; in experiment [6], 11 mm. In addition, the zone of inhibition at 1000 µg/mL was determined as 9 mm in [7], 18 mm in [8], 13 mm in [9] and 18 mm in [10].
With `Cc1ccc(/C=N/NC(=S)Nc2ccc(C(=O)NCC(=O)O)cc2)cc1`, the zone of inhibition at 1000 µg/mL in [1] was determined as 0 mm; in experiment [2] it was 0 mm; in [3], 20 mm; in experiment [4], 24 mm; in experiment [5], 0 mm; in experiment [6], 0 mm. In addition, the zone of inhibition at 1000 µg/mL was 0 mm in experiment [7], 9 mm in [8], 0 mm in experiment [9] and 10 mm in experiment [10].
`O=C(O)CNC(=O)c1ccc(NC(=S)N/N=C/c2ccc(F)cc2)cc1`: the PI in [11] was found to be 2. Further, the minimum inhibitory concentration (MIC) came to 50 µg/mL (≈ 134 µM) in [12]; 12.5 µg/mL (≈ 33.4 µM) in experiment [13]; 12.5 µg/mL (≈ 33.4 µM) in experiment [14]; 25 µg/mL (≈ 66.8 µM) in experiment [15]; 6.25 µg/mL (≈ 16.7 µM) in [16]; 25 µg/mL (≈ 66.8 µM) in experiment [17]. The minimal inhibitory concentration (MIC) in experiment [18] was found to be 12.5 µg/mL (≈ 33.4 µM); in [19], 12.5 µg/mL (≈ 33.4 µM); in experiment [20] it was 12.5 µg/mL (≈ 33.4 µM); in [21], 6.25 µg/mL (≈ 16.7 µM). In addition, the zone of inhibition at 1000 µg/mL stood at 20 mm in experiment [1]; 20 mm in experiment [2]; 26 mm in [3]; 28 mm in experiment [4]; 31 mm in experiment [5]; 30 mm in experiment [6]. Further, the zone of inhibition at 1000 µg/mL in experiment [7] came to 30 mm; in experiment [8], 19 mm; in experiment [9] it was 20 mm; in [10], 28 mm.
Take `O=C(O)CNC(=O)c1ccc(NC(=S)N/N=C/c2ccc([N+](=O)[O-])cc2)cc1`: the zone of inhibition at 1000 µg/mL in experiment [1], in experiment [2], in experiment [3], in [4], in [5] and in [6] was 0 mm each time. Further, the zone of inhibition at 1000 µg/mL in experiment [7] was 0 mm; in experiment [8], 14 mm; in experiment [9] it was 15 mm; in [10], 11 mm.
As for `C/C(=N\NC(=S)Nc1ccc(C(=O)NCC(=O)O)cc1)c1ccccc1`, the zone of inhibition at 1000 µg/mL in [1] came to 0 mm; in [2], 17 mm; in experiment [3] it was 19 mm; in experiment [4], 25 mm; in experiment [5] it was 19 mm; in [6], 19 mm. The zone of inhibition at 1000 µg/mL in experiment [7] came out at 18 mm; in [8], 18 mm; in [9] it was 14 mm; in experiment [10] it was 20 mm.
Take `C/C(=N\NC(=S)Nc1ccc(C(=O)NCC(=O)O)cc1)c1ccc(Br)cc1`: the zone of inhibition at 1000 µg/mL worked out at 0 mm in experiment [1]; 18 mm in [2]; 20 mm in experiment [3]; 25 mm in experiment [4]; 23 mm in experiment [5]; 19 mm in [6]. For the same molecule, the zone of inhibition at 1000 µg/mL is 19 mm in experiment [7], 17 mm in experiment [8], 15 mm in [9] and 20 mm in experiment [10].
`C/C(=N\NC(=S)Nc1ccc(C(=O)NCC(=O)O)cc1)c1ccc(C)cc1`: the figures for the PI in experiment [11] and in experiment [22] were 2 and 4, respectively. For the same molecule, the MIC amounted to 25 µg/mL (≈ 65 µM) in experiment [12]; 6.25 µg/mL (≈ 16.3 µM) in [13]; 12.5 µg/mL (≈ 32.5 µM) in experiment [14]; 12.5 µg/mL (≈ 32.5 µM) in experiment [15]; 6.25 µg/mL (≈ 16.3 µM) in experiment [16]; 3.12 µg/mL (≈ 8.12 µM) in experiment [17]. In addition, the minimal inhibitory concentration (MIC) in experiment [18] worked out at 25 µg/mL (≈ 65 µM); in experiment [19], 12.5 µg/mL (≈ 32.5 µM); in experiment [20] it was 12.5 µg/mL (≈ 32.5 µM); in experiment [21], 6.25 µg/mL (≈ 16.3 µM). The zone of inhibition at 1000 µg/mL turned out to be 25 mm in [1]; 26 mm in experiment [2]; 21 mm in experiment [3]; 25 mm in [4]; 27 mm in experiment [5]; 32 mm in experiment [6]. Further, the zone of inhibition at 1000 µg/mL in experiment [7] was determined as 22 mm; in experiment [8] it was 25 mm; in experiment [9] it was 19 mm; in experiment [10], 29 mm.
As for `C/C(=N\NC(=S)Nc1ccc(C(=O)NCC(=O)O)cc1)c1ccc(Cl)cc1`, the zone of inhibition at 1000 µg/mL in experiment [1], in experiment [2], in experiment [3], in experiment [4], in experiment [5] and in experiment [6] was 0 mm each time. Further, the zone of inhibition at 1000 µg/mL in [7] is 0 mm; in experiment [8] it was 14 mm; in experiment [9] it was 15 mm; in experiment [10], 9 mm.
As to `O=C(O)CNC(=O)c1ccc(NC(=S)NN=C(c2ccccc2)c2ccccc2)cc1`, the zone of inhibition at 1000 µg/mL in [1] is 0 mm; in experiment [2], 0 mm; in [3], 0 mm; in experiment [4], 0 mm; in experiment [5], 17 mm; in [6], 12 mm. Further, the zone of inhibition at 1000 µg/mL in experiment [7] was found to be 0 mm; in [8] it was 15 mm; in experiment [9], 20 mm; in experiment [10], 0 mm.
Take `O=C(O)CNC(=O)c1ccc(NC(=S)NN=C2CCCCC2)cc1`: the zone of inhibition at 1000 µg/mL is 0 mm in [1]; 0 mm in experiment [2]; 20 mm in experiment [3]; 24 mm in [4]; 0 mm in experiment [5]; 12 mm in experiment [6]. Besides, the zone of inhibition at 1000 µg/mL in experiment [7] is 0 mm; in experiment [8], 9 mm; in experiment [9], 0 mm; in [10], 11 mm.
Turning to `O=C(O)CNC(=O)c1ccc(NC(=S)N/N=C2/CC(=O)c3ccccc32)cc1`, the zone of inhibition at 1000 µg/mL worked out at 0 mm in [1]; 12 mm in experiment [2]; 20 mm in experiment [3]; 24 mm in experiment [4]; 18 mm in [5]; 11 mm in experiment [6]. The zone of inhibition at 1000 µg/mL in experiment [7] worked out at 0 mm; in experiment [8] it was 0 mm; in experiment [9] it was 9 mm; in [10], 28 mm.
